{"source": "patent US20260265216A1", "about": "“NOVEL THIOREDOXIN REDUCTASE INHIBITORS” (GENEXPLAIN GMBH, priority 2021, published 2026)", "key": {"[1]": {"test_system": "B16 melanoma", "assay": "B16 melanoma mouse model", "assay_type": "in vivo, C57BL/6 mice", "conditions": "10 mg/kg i.p. every other day for 9 days, day 8 and day 9", "procedure": "For the B16 melanoma mouse model, 6-weeks-old female C57BL/6 mice were injected subcutaneously with 1×10^6 B16 cells. When the tumors reached 80-120 mm^3, 10 mg/kg of 1d*HCl were administered intraperitoneally every other day for 9 days (days 1, 3, 5, 7, 9). Tumor volume was measured by caliper three times per week, and the volume was calculated based on the formula (in ml): L/10*W/10*W/10*0.44 (L-length, W=width of tumor). Mice were sacrificed when tumors reached 2 cm^3 or upon bleeding.\nWe tested the anti-tumor activity of 1d*HCl using allogenic model of B16 mice. We inoculated mice with B16 melanoma cells. When the tumors reached 100 mm^3, we treated them with i.p. injection of 1d*HCl, 10 mg/kg every other day for 9 days. […] The differences in tumor volume between untreated control mice and animals treated with 1d*HCl are all statistically significant. Thus, 1d*HCl has in vivo anti-tumor activity in this animal tumor model."}, "[2]": {"test_system": "HCT116 cells", "assay": "Growth suppression in the presence of antioxidant NAC", "assay_type": "cell-based", "conditions": "HCT116, 5 mM NAC 16 h pre-treatment; 2.5, 5, 10 μM; 24 h", "procedure": "To find out whether oxidative stress plays a role in cancer cell death induced by 1d*HCl, we tested the extent of growth suppression by the treatment in the presence of antioxidant N-acetyl cysteine (NAC), which neutralize ROS. We pre-treated HCT116 cells with 5 mM NAC. After 16 h of incubation with NAC, we treated HCT116 cells with 2.5, 5, and 10 μM of 1d*HCl. We measured the growth suppression 24 h after treatment. […] Thus, we conclude that the mechanism of cancer cell growth suppression is dependent on the induction of oxidative stress by the compounds of the present invention."}, "[3]": {"test_system": "recombinant purified GR", "assay": "GR recombinant enzyme assay in vitro", "assay_type": "biochemical", "procedure": "TrxR1 enzyme was recombinantly produced with high Sec contents in a specific Release Factor 1-depleted E. coli strain and purified as previously described (Arnér E S J, Holmgren A, in Current Protocols in Toxicology, Maines M, Costa L, Reed D, Sassa S, Eds. (John Wiley & Sons, Inc., New York, 2000), pp. 7.4.1-7.4.14). TrxR1 and GSR (Sigma) recombinant enzyme assays were performed in a reaction buffer containing 50 mM Tris pH 7.5 with 2 mM EDTA and 0.1 mg/mL bovine serum albumin as described previously (Arnér E S J, Holmgren A, in Current Protocols in Toxicology, Maines M, Costa L, Reed D, Sassa S, Eds. (John Wiley & Sons, Inc., New York, 2000), pp. 7.4.1-7.4.14). Briefly, assays were performed in triplicate using 96-well plates, with activity inferred from absorbance changes using a Spectra Max plate reader. Results of recombinant enzyme assays were normalized to DMSO and to no enzyme controls.\nWe used recombinant purified TrxR1 and GR in an in vitro assay as described in methods section."}}}
{"smiles": "Cl.N#Cc1c(-c2cccnc2)[n+]([O-])c2cc(F)c(N3CCOCC3)cc2[n+]1[O-]", "note": "[Compound 1d*HCl, 6-Fluoro-7-(morpholin-4-yl)-3-(pyridin-3-yl)quinoxaline-2-carbonitrile-1,4-dioxide hydrochloride]", "values": [{"measurement": "tumor volume compared to vehicle-treated mice", "setting": "[1]", "result": "lower volume of tumors"}, {"measurement": "growth suppression after prevention of ROS accumulation by NAC", "setting": "[2]", "result": "almost completely abolished the growth suppression"}, {"measurement": "inhibition of GR activity", "setting": "[3]", "result": "did not inhibit GR activity"}]}
